Measurements taken from patent US12295970B2, “Imidazoquinoline compounds and prodrugs thereof” (UNIVERSITY OF KANSAS, priority 2019, dated 2025).
“Also recorded” adds a separate entry of the source.

Tests used:
hTLR8 = molecular target: T1, hTLR8 (Homo sapiens, UniProt Q9NR97); experiment: SEAP reporter assay for hTLR-8 activity (HEK-Blue hTLR8 cells); assay type: cell-based
T1 construct: host or cells: HEK293 (HEK-Blue hTLR8)
T1 sequence (Q9NR97 27-1041): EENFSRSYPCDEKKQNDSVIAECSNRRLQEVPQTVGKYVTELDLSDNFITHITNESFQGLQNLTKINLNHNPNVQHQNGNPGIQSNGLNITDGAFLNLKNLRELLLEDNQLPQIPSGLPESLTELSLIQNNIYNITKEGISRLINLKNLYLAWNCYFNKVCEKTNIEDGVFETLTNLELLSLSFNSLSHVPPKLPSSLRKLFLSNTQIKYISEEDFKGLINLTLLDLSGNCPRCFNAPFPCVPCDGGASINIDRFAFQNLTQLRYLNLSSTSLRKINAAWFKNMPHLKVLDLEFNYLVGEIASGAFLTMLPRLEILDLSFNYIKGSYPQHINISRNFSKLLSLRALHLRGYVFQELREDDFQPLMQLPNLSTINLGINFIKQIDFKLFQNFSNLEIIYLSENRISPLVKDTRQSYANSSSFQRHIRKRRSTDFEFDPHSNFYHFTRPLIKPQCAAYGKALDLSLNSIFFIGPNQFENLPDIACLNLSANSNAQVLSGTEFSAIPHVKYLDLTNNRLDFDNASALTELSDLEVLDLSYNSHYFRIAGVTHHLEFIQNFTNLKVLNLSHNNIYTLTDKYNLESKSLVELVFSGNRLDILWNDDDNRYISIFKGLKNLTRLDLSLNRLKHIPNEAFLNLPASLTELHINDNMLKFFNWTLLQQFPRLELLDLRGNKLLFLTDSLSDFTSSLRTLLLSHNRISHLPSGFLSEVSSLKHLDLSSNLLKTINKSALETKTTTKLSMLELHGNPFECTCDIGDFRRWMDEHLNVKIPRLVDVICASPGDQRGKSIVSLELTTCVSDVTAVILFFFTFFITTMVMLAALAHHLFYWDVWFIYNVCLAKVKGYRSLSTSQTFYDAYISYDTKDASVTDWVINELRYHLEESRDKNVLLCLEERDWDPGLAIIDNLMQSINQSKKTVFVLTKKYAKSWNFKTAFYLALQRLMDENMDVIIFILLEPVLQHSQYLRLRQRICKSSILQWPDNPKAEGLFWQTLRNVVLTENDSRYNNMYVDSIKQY
Experimental: TLR activation induces NF-κB production and subsequent SEAP secretion, which is measured using HEK-Detection media (InvivoGen) containing a colorimetric substrate for SEAP (UV-Vis, 637 nm).
The experiments followed manufacturer protocol as follows: SEAP levels were measured via absorbance at 637 nm using HEK-Blue Detection cell culture medium (InvivoGen), which contains a SEAP-specific colorimetric substrate. Compound stock solutions were first diluted in sterile DMSO at a concentration of 10 mM. Lower concentrations were prepared by serial dilution of the initial 10 mM stock samples into sterile DMSO and these solutions (22 μL) were subsequently diluted into sterile H2O (198 μL) using a BioTek Precision XS pipetting system. HEK-Blue hTLR7, HEK-Blue hTLR8, Null 1−k, and Null 1 cell suspensions in sterile HEK-Blue Detection medium were prepared at a density of 220,000 cells per mL. Clear bottom, 96-well tissue culture treated plates (Corning) were seeded with hTLR7 and Null 1−k or hTLR8 and Null 1 cell suspensions (180 μL/well), after which 20 μL of the various sample concentrations in 10% v/v DMSO/H2O were added (20 μL) in quadruplicate wells to yield the desired testing concentration in 1% v/v DMSO cell suspension. Plates were incubated at 37° C. and 5% CO2 in the dark. Absorbance measurements were taken at 637 nm at 12 hours, 4 replicates per concentration point, per cell line (hTLR7, hTLR8, Null 1−k, Null 1). Three independent measurements on different days were performed for each analog.
Corresponding well absorbance values for each concentration tested were averaged with respect to days tested, and the average relative NF-κB induction (UV-Vis, 637 nm) of the null cell lines (Null 1-k or Null 1) were subtracted from the respective average TLR expressing cell line (hTLR7 or hTLR8) absorbance averages. […] The three independent, normalized averages for each analog were then pooled, and the data was fit using the Hill-Slope model (GraphPad Prism v7.0) using the non-linear fit from the [Agonist] vs. response—Variable Slope (four parameters) with a hill slope constrained to less than 3.

[1] = In vitro release kinetics (dialysis method); assay type: physicochemical; conditions: PBS media, pH 7.4
Experimental: Solutions (1 mL) of free R848 in DMSO, R848/HA-Toco in water, R848-Toco in DMSO, and R848-Toco/HA-Toco in water, with a concentration of 1 mg/mL on R848 basis were dialyzed using SnakeSkin® dialysis tubing (MWCO […]) against 30 mL of phosphate buffered saline release medium (PBS, 10 mM sodium phosphate, 137 mM NaCl, pH 7.4) with 0.5% (w/v) polysorbate 80 at 37° C. At predetermined time points, 1 mL aliquots of release medium were sampled and replaced with an equal volume of fresh medium. The samples were kept frozen (−20° C.) until HPLC analysis.
Results: The in vitro release profiles of R848 and R848-Toco from the HA-Toco were studied using a dialysis method. […] The release of parent R848 formulated with HA-Toco was tested in PBS media, with free R848 dissolved in DMSO as a control. Similar release kinetics were observed whether R848 was formulated with HA-Toco or without ([…]), and in both conditions nearly 100% of the agonist was released over 24 h (FIG. 4A).

[2] = Depot effect: ear inflammation test in healthy rabbits; assay type: in vivo, New Zealand White rabbits; conditions: s.c. into rabbit ear
Experimental: It was observed that a local injection of the R848-Toco/HA-Toco nano-emulsion forms a depot at the site of injection and releases the loaded agonist in a sustained fashion, producing prolonged and localized immune stimulation while minimizing systemic off-target effects. To test the localization effect, an ear inflammation test was conducted in healthy rabbits. R848-Toco/HA-Toco and unformulated R848 were injected subcutaneously into opposing rabbit ears of subjects, and local inflammation and systemic TNF-α responses were observed.
New Zealand White rabbits (3-4 kg) were anaesthetized using 5% isoflurane and injected subcutaneously with 2.5 mg of R848 in 250 μl of vehicle into the ipsilateral ear. R848-Toco/HA-Toco was formulated as described above, and the R848 parent compound was formulated in 0.5% polysorbate 80 (w/v) in water. For histopathology, punch biopsies were taken 24 hours post injection, fixed in formalin, and analyzed by a board-certified veterinary pathologist (Kansas State Veterinary Hospital, […], KS, USA). In separate animals, blood samples were taken pre-injection and at 0.5, 1, 2, 5, and 24 h post-injection time points from the contra-lateral ear (marginal vein, 22 ga). Whole blood was centrifuged at 1500×g for 5 min and the serum were collected for cytokine evaluation. All samples and controls were prepared, and serum cytokine levels were measured.

SMILES: CCOCc1nc2c(N)nc3ccccc3c2n1CC(C)(C)O [Compound 2, resiquimod, reference compound]
- agonist for TLR8 receptor (in words) (hTLR8): agonists
- agonist released over 24 h [1]: ~100%
- local response at the injection site ([2]; 2.5 mg of R848 in 250 μl): minimum change; also recorded: no local reaction
- plasma TNF-α levels ([2]; 0.5-24 h post-injection, n=4): significant elevation
